The test system of series [1] is HCV replicon cells (2209-23). As to the kind of experiment: HCV replicon assay (Renilla luciferase reporter). Format: cell-based, HCV genotype 1b replicon in human hepatoma Huh7 cells. The settings on record: Hepatitis C virus, 72 h; 2209-23 cells, three days incubation. In general terms: In antiviral work, replicon cells carry a viral genome segment that copies itself.

A short description of series [2]: Determination of pharmacokinetic parameters in rats. Format: in vivo. The conditions noted are these: male, Wistar Han (Hanover-Wistar), Crl:WI(GLx/BRL/Han)IGS BR, rat, oral gavage, 10 mg/kg, plasma; for AUC(0-t): read-out: AUC0→24 (extrapolated). The protocol:
Intact male IGS Wistar Han Rats Crl:WI(GLx/BRL/Han)IGS BR (Hanover-Wistar) rats weighing 200-250 g were used. Groups of three rats were used for each dose level of an experimental compound. Animals were allowed normal access to chow and water throughout the experiment. The test substance was formulated as an aqueous suspension containing Captex355EP, Capmul MCM, EtOH, and propylene glycol (30:20:20:30) at a dose equivalent to 10 mg/kg of the I-6 and was administered orally by gavage. A blood sample (0.3 mL) was collected from the treated rats at, 0.25, 0.5, 1, 3, 5, and 8 h from a jugular cannula and at 24 h by cardiac puncture. Potassium oxalate/NaF were added to the samples which were stored on ice during sampling procedure. The samples were spun in a refrigerated centrifuge at […] as soon as possible and the plasma samples were stored in a −80° C. freezer until analysis. Aliquots of plasma (0.05 mL) were mixed with 0.1 mL of acetonitrile. Internal standard (0.05 mL in water) and 0.02 mL blank solvent were added. A set of calibration standards was prepared by mixing 0.05-mL aliquots of plasma from untreated rats with 0.1 mL acetonitrile, 0.02-mL aliquots of standard solution in methanol:water (1:1) and 0.05-mL aliquots of the internal standard in water. Each plasma sample and calibration standard was vortexed thoroughly and then centrifuged at 3000 rpm for 5 min to precipitate the protein. Supernatant (100 μL each) from centrifugation was transferred into a 96-well plate containing 200 μL of aqueous mobie phase for LC/MS/MS analysis.

For a further series, the system named is HCV. The conditions noted are these: monotherapy; cited from earlier work.

On to `[2H]C([2H])([2H])C(c1cc(-c2ccc[nH]c2=O)cc(/C=C/c2ccc(NS(C)(=O)=O)cc2)c1OC)(C([2H])([2H])[2H])C([2H])([2H])[2H]` [Compound I-1, N-(4-{(E)-2-[3-[1,1-di(methyl-d3)ethyl-2,2,2-d3]-2-methoxy-5-(2-oxo-1,2-dihydro-pyridin-3-yl)-phenyl]-vinyl}-phenyl)-methanesulfonamide], for which, in series [1], the IC50 (usually the concentration at which inhibition is half-maximal) turned out to be 6.1 nM.
For the compound `[2H]C([2H])([2H])C(c1cc(-c2cc(Cl)c[nH]c2=O)cc(/C=C/c2ccc(NS(C)(=O)=O)cc2)c1OC)(C([2H])([2H])[2H])C([2H])([2H])[2H]` [Compound I-3, N-(4-{(E)-2-[3-[1,1-di(methyl-d3)ethyl-2,2,2-d3]-2-methoxy-5-(2-oxo-5-chloro-1,2-dihydro-pyridin-3-yl)-phenyl]-vinyl}-phenyl)-methanesulfonamide], in series [2], the area under the curve (AUC) (as a rule, concentration integrated over time) was determined as 810 ng·h/mL; the Cmax (as a rule, the highest concentration seen after dosing) was determined as 83.4 ng/mL; the AUC(0-t) was 1000 ng·h/mL.
`[2H]C([2H])([2H])C(c1cc(-c2c[nH]c(=O)[nH]c2=O)cc(/C=C/c2ccc(NS(C)(=O)=O)cc2)c1OC)(C([2H])([2H])[2H])C([2H])([2H])[2H]` [Compound I-4, N-(4-{(E)-2-[3-[1,1-di(methyl-d3)ethyl-2,2,2-d3]-5-(2,4-dioxo-1,2,3,4-tetrahydro-pyrimidin-5-yl)-2-methoxy-phenyl]-vinyl}-phenyl)-methanesulfonamide] returned an IC50 in series [1] of 3.9 nM.
`COc1c(/C=C/c2ccc(NS(C)(=O)=O)cc2)cc(-c2cc(Cl)c[nH]c2=O)cc1C(C)(C)C` [I-3 (non-deuterated), reference compound]: in series [2], the AUC was 338 ng·h/mL, the highest level (Cmax) was 55.8 ng/mL and the AUC(0-t) is 365 ng·h/mL.
`NC(=O)c1ncn([C@@H]2O[C@H](CO)[C@@H](O)[C@H]2O)n1` [ribavirin, 1-((2R,3R,4S,5R)-3,4-Dihydroxy-5-hydroxymethyl-tetrahydro-furan-2-yl)-1H-[1,2,4]triazole-3-carboxylic acid amide]: in the series on HCV, the “patients with serum amino transferase levels reduced to normal” value is on record as 40%.

The record behind these values is patent publication US8383824B2, “Heterocyclic antiviral compounds” (Roche Palo Alto LLC, priority 2009, dated 2013).
